The values that follow come from US20230226003A1, “NATURAL ANTIBACTERIAL AND ANTIVIRAL BIOLOGICAL COMPOSITIONS, COMPOUNDS, METHOD FOR OBTAINING SAME, AND USE THEREOF” (BEEOTEC HOLDING S/A, priority 2020, published 2023).

Molecules are shown by their SMILES.

The subject of the test is microorganisms on surfaces of a surgical center. Put plainly: Efficiency of disinfectants: reduction of microbial counts on surgical center surfaces. As to conditions: post- vs pre-disinfection; same letter = no significant difference (p < 0.05).

For `OCl` [0.5% sodium hypochlorite, sodium hypochlorite], the “Reduction of counts microbial (%)” value was 61 b %. Regarding `CC(C)O` [70% isopropanol, isopropyl alcohol], the “Reduction of counts microbial (%)” value amounted to 87 a %.
